Patent publication US8952024B2, “Herbicidal pyrimidone derivatives” (E I du Pont de Nemours and Company, priority 2009, dated 2015)

Columns and labels:
Format in all cases: in vivo
[1] = tested on: barnyardgrass (Echinochloa crus-galli); assay: Test B flooded paddy test; conditions: for Plant response rating, Flood, Barnyardgrass: 250 g ai/ha, flooded paddy test, visual rating on 0 to 100 scale (0 no effect, 100 complete control) after 13 to 15 days; for Plant response rating, Barnyardgrass: Flood (flooded paddy test), 13 to 15 days; for Barnyardgrass plant response rating: Flood, 31 g ai/ha, scale 0 to 100 (0 no effect, 100 complete control)
In short: (§1)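 Visual scores run from 0 (no effect) to 100 (complete control), assigned by comparison with controls 13 to 15 days after treatment. Test compounds went straight into water standing 3 cm above the soil, around plants at the 2-leaf stage kept in a greenhouse.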

[2] = tested on: umbrella sedge (Cyperus difformis); assay: Test B flooded paddy test; conditions: for Plant response rating, Flood, Sedge, Umbrella: 250 g ai/ha, flooded paddy test, visual rating on 0 to 100 scale (0 no effect, 100 complete control) after 13 to 15 days; for Plant response rating, Sedge, Umbrella: Flood (flooded paddy test), 13 to 15 days; for Sedge, Umbrella plant response rating: Flood, 31 g ai/ha, scale 0 to 100 (0 no effect, 100 complete control)
In short: as §1

[3] = tested on: ducksalad (Heteranthera limosa); assay: Test B flooded paddy test; conditions: for Plant response rating, Flood, Ducksalad: 250 g ai/ha, flooded paddy test, visual rating on 0 to 100 scale (0 no effect, 100 complete control) after 13 to 15 days; for Plant response rating, Ducksalad: Flood (flooded paddy test), 13 to 15 days; for Ducksalad plant response rating: Flood, 31 g ai/ha, scale 0 to 100 (0 no effect, 100 complete control)
In short: as §1

rice (Oryza sativa) = assay: Test B flooded paddy test; conditions: for Plant response rating, Flood, Rice: 250 g ai/ha, flooded paddy test, visual rating on 0 to 100 scale (0 no effect, 100 complete control) after 13 to 15 days; for Plant response rating, Rice: Flood (flooded paddy test), 13 to 15 days; for Rice plant response rating: Flood, 31 g ai/ha, scale 0 to 100 (0 no effect, 100 complete control)
In short: as §1

corn (Zea mays) = assay: Test A pre-/postemergence plant response
In short: (§2)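 Greenhouse pots of loam/sand received directed preemergence soil sprays or postemergence sprays (plants 2–10 cm, 1–2 leaf stage), compounds formulated in non-phytotoxic solvent with surfactant. Injury was rated visually versus untreated controls after about ten days on a 0 (no effect) to 100 (complete control) scale.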

[4] = tested on: barnyardgrass (Echinochloa crus-galli); assay: Test A pre-/postemergence plant response
In short: as §2

[5] = tested on: giant foxtail (Setaria faberii); assay: Test A pre-/postemergence plant response
In short: as §2

[6] = tested on: pigweed (Amaranthus retroflexus); assay: Test A pre-/postemergence plant response
In short: as §2

[7] = 62 g ai/ha, scale of 0 to 100 where 0 is no effect and 100 is complete control
[8] = 125 g ai/ha, scale 0 to 100, 0 is no effect, 100 is complete control
[9] = Postemergence, 125 g ai/ha, visual injury, 0 to 100 scale (0 no effect, 100 complete control), approx. ten days
[10] = Postemergence, 500 g ai/ha, 0 to 100 scale, 0 = no effect, 100 = complete control, approx. ten days
[11] = Preemergence, 125 g ai/ha, 0 to 100 scale, 0 = no effect, 100 = complete control
[12] = Preemergence, 500 g ai/ha, visual injury, 0 to 100 scale (0 no effect, 100 complete control), approx. ten days
[13] = Postemergence, 125 g ai/ha, 0 to 100 scale where 0 is no effect and 100 is complete control

Row | Compound | Plant response rating, Flood, Barnyardgrass [1] | Plant response rating, Barnyardgrass [1, 7] | Plant response rating, Barnyardgrass [1, 8] | Barnyardgrass plant response rating [1] | Plant response rating, Flood, Sedge, Umbrella [2] | Plant response rating, Sedge, Umbrella [2, 7] | Plant response rating, Sedge, Umbrella [2, 8] | Sedge, Umbrella plant response rating [2] | Plant response rating, Flood, Ducksalad [3] | Plant response rating, Ducksalad [3, 7] | Plant response rating, Ducksalad [3, 8] | Ducksalad plant response rating [3] | Plant response rating, Flood, Rice (rice (Oryza sativa)) | Plant response rating, Rice (rice (Oryza sativa); [7]) | Plant response rating, Rice (rice (Oryza sativa); [8]) | Rice plant response rating (rice (Oryza sativa)) | Plant response rating, Corn (corn (Zea mays); [10]) | Plant response rating, Corn (corn (Zea mays); [11]) | Plant response rating, Corn (corn (Zea mays); [12]) | Plant response rating, Barnyardgrass [4, 10] | other results
1 | O=C1CCCC(O)=C1C(=O)c1cnc(-c2ccc(Br)cc2)n(-c2ccccc2)c1=O [Compound 70] | 20 | 0 | 0 | 0 | 20 | 0 | 20 | 0 | 0 | 0 | 0 | 0 | 20 | 0 | 0 | 0 | 20 | 0 | 0 | 80 | Corn plant response rating (corn (Zea mays); [9]): 0; Barnyardgrass plant response rating [4, 9]: 50; Plant response rating, Barnyardgrass [4, 11]: 0; Plant response rating, Barnyardgrass [4, 12]: 10; Foxtail, Giant plant response rating [5, 9]: 50; Plant response rating, Foxtail, Giant [5, 10]: 90; Plant response rating, Foxtail, Giant [5, 11]: 30; Plant response rating, Foxtail, Giant [5, 12]: 60; Pigweed plant response rating [6, 9]: 100; Plant response rating, Pigweed [6, 10]: 100; Plant response rating, Pigweed [6, 11]: 60; Plant response rating, Pigweed [6, 12]: 100
2 | CCCc1ncc(C(=O)C2=C(O)CCCC2=O)c(=O)n1-c1cccc(C)c1 [Compound 79] | 30 | 0 | 20 | 0 | 30 | 0 | 0 | 0 | 40 | 0 | 15 | 0 | 20 | 0 | 15 | 0 | 60 | 0 | 0 | 90 | Plant response rating, Corn (corn (Zea mays); [13]): 10; Plant response rating, Barnyardgrass [4, 13]: 80; Plant response rating, Barnyardgrass [4, 11]: 0; Plant response rating, Barnyardgrass [4, 12]: 70; Plant response rating, Foxtail, Giant [5, 13]: 50; Plant response rating, Foxtail, Giant [5, 10]: 80; Plant response rating, Foxtail, Giant [5, 11]: 0; Plant response rating, Foxtail, Giant [5, 12]: 50; Plant response rating, Pigweed [6, 13]: 100; Plant response rating, Pigweed [6, 10]: 100; Plant response rating, Pigweed [6, 11]: 100; Plant response rating, Pigweed [6, 12]: 100
3 | O=C1CCCC(O)=C1C(=O)c1cnc(C2CC2)n(-c2ccccc2)c1=O [Compound 87] | 60 | 45 | 55 | 20 | 70 | 20 | 50 | 0 | 20 | 30 | 20 | 20 | 70 | 20 | 60 | 0 | 50 | 0 | 0 | 90 | Plant response rating, Corn (corn (Zea mays); [13]): 10; Plant response rating, Barnyardgrass [4, 13]: 80; Plant response rating, Barnyardgrass [4, 11]: 20; Plant response rating, Barnyardgrass [4, 12]: 90; Plant response rating, Foxtail, Giant [5, 13]: 70; Plant response rating, Foxtail, Giant [5, 10]: 90; Plant response rating, Foxtail, Giant [5, 12]: 80; Plant response rating, Pigweed [6, 13]: 100; Plant response rating, Pigweed [6, 10]: 100
4 | O=C1CCCC(O)=C1C(=O)c1cnc(-c2ccccc2)n(C2CC2)c1=O [Compound 90] | 30 | 0 | 15 | 0 | 80 | 60 | 75 | 50 | 90 | 65 | 80 | 50 | 0 | 0 | 0 | 0 | 20 | 0 | 0 | 90 | Plant response rating, Corn (corn (Zea mays); [13]): 0; Plant response rating, Barnyardgrass [4, 13]: 80; Plant response rating, Barnyardgrass [4, 11]: 40; Plant response rating, Barnyardgrass [4, 12]: 70; Plant response rating, Foxtail, Giant [5, 13]: 70; Plant response rating, Foxtail, Giant [5, 10]: 80; Plant response rating, Foxtail, Giant [5, 11]: 30; Plant response rating, Foxtail, Giant [5, 12]: 60; Plant response rating, Pigweed [6, 13]: 100; Plant response rating, Pigweed [6, 10]: 100; Plant response rating, Pigweed [6, 11]: 80; Plant response rating, Pigweed [6, 12]: 100
5 | COCCOCCn1c(-c2ccccc2)ncc(C(=O)C2=C(O)CCCC2=O)c1=O [Compound 91] | 65 | 20 | 60 | 15 | 100 | 95 | 100 | 75 | 100 | 90 | 90 | 65 | 15 | 15 | 15 | 0 | 10 | 0 | 0 | 100 | Plant response rating, Corn (corn (Zea mays); [13]): 0; Plant response rating, Barnyardgrass [4, 13]: 90; Plant response rating, Barnyardgrass [4, 11]: 60; Plant response rating, Barnyardgrass [4, 12]: 100; Plant response rating, Foxtail, Giant [5, 13]: 80; Plant response rating, Foxtail, Giant [5, 10]: 80; Plant response rating, Foxtail, Giant [5, 11]: 40; Plant response rating, Foxtail, Giant [5, 12]: 70; Plant response rating, Pigweed [6, 13]: 100; Plant response rating, Pigweed [6, 10]: 100; Plant response rating, Pigweed [6, 11]: 90; Plant response rating, Pigweed [6, 12]: 90
6 | O=C1CCCC(O)=C1C(=O)c1cnc(C2CCCC2)n(-c2ccccc2)c1=O [Compound 92] | 45 | 0 | 20 | 0 | 85 | 65 | 70 | 65 | 85 | 30 | 70 | 20 | 40 | 0 | 25 | 0 | 20 | 0 | 0 | 90 | Plant response rating, Corn (corn (Zea mays); [13]): 0; Plant response rating, Barnyardgrass [4, 13]: 80; Plant response rating, Barnyardgrass [4, 11]: 60; Plant response rating, Barnyardgrass [4, 12]: 100; Plant response rating, Foxtail, Giant [5, 13]: 80; Plant response rating, Foxtail, Giant [5, 10]: 90; Plant response rating, Foxtail, Giant [5, 11]: 70; Plant response rating, Foxtail, Giant [5, 12]: 80; Plant response rating, Pigweed [6, 13]: 100; Plant response rating, Pigweed [6, 10]: 100; Plant response rating, Pigweed [6, 11]: 100; Plant response rating, Pigweed [6, 12]: 100
